Experimental findings from patent US10953027B2, “Active agents and methods of their use for the treatment of metabolic disorders and nonalcoholic fatty liver disease” (Flagship Pioneering Innovations V, Inc., priority 2018, dated 2021) are described below.

The assay relates to DIO-NASH mice. The assay is described as follows: DIO animal model of NAFLD/NASH (Example 15). It is filed as in vivo. To be noted: 0.03% in AMLN diet, vs DIO-NASH vehicle. As to the method:
The effect of 8 weeks of treatment for the indicated compounds on metabolic liver disease in pre-biopsied, 43-week old male DIO-NASH mice was evaluated (12 animals per group). Male C57BL/6JRj mice were fed 40% fat (18% trans-fat), 40% carbohydrate (20% fructose), and 2% Cholesterol (AMLN) diet for 38 weeks. All mice entering the experiment were pre-biopsied stratified based on liver biopsy (only animals with fibrosis stage ≥1 and steatosis score ≥2 were included). Animals were randomized into groups based on Col1a1 immunostaining. Mice were treated for a total of 8 weeks of dosing (drugs in diet, ad lib). […] Elafibranor was supplied by the vendor. Body weight was measured daily for the entire study period. Food intake was monitored daily for first 14 days and then twice a week until study end. Day 28 collection of tail vein blood/serum and feces. Terminal plasma was collected for biomarker determination of liver transaminases (ALT, AST), triglyceride and cholesterol. Terminal liver was removed, weighed, and sampled for 1) FFPE (histology), 2) frozen (biochemistry and nucleic acid). Liver biopsy histology: pre- and post-treatment NAFLD Activity Score (HE) including Fibrosis Stage (PSR), 2) post-treatment steatosis (HE), 3) post-treatment lipid-droplet #+size (HE), 4) post-treatment Galectin-3 (IHC), 5) pre- and post-treatment Collagen 1a1 (IHC), 6) post-treatment α-SMA (IHC). […]

For the compound `CSc1ccc(C(=O)/C=C/c2cc(C)c(OC(C)(C)C(=O)O)c(C)c2)cc1` [Elafibranor], the “liver fibrosis, Picro Sirius red (FIG. 49B)” value is “the fibrosis is finer” and the “liver morphology: lipid vacuole size (FIG. 48B)” value is recorded as “the vacuoles are smaller”.
